# Measurements: US6953814B2, “Natural insect repellant” (Stratacor, Inc., priority 1997, dated 2005)
# Values joined by “and” are separate entries in the source; they are usually repeats but may differ in a detail not shown here. Equal entries are not always repeated.
# Experiments:
# [1] = tested on: Aedes aegypti mosquitoes; settings: 0.31 mg/cm^2; cited from earlier work
# [2] = tested on: Aedes aegypti; settings: 0.5 mg/cm^2 on the skin of man; cited from earlier work
# [3] = Vapor pressure; type: physicochemical; settings: for Vol. (vapor pressure), (est): at 125° C., estimated or extrapolated from literature values
# [4] = tested on: mosquitoes; settings: Hill et al. 1979; cited from earlier work
# [5] = tested on: Aedes aegypti mosquitoes; experiment: Mosquito repellency on skin (olfactometer, human forearm); type: in vivo; settings: for Percent Repellency 2 h: 0.3 mg/cm^2, 2 h after application; for Percent Repellency 0 h: 0.3 mg/cm^2, 0 h after application
# Description: Olfactometer: A Fiensod and Spielman olfactometer, as modified by Bowen and Davis, measured the host-oriented flight response of female mosquitoes to volatile host emanations (Feinsod, F. M., and A. Spielman; An olfactometer for measuring host-seeking behavior of female Aedes aegypti (Diptera: Culicidae); J. Med. Entomol., 15: 282-285, 1979). The olfactometer (approximately 38 cm high) consisted of an upper and lower screened chamber with a closure between the chambers (FIG. 8). A fan placed above the upper chamber drew air through the apparatus at approximately 0.2 m/s. A temperature and humidity controlled chamber (5′ wide by 6′ long by 8′ high) was constructed to house the test subject and the olfactometer.
# Rearing of Mosquitoes: A second environmental chamber, maintained at 27° C. and 80% humidity, was dedicated to the rearing of Aedes aegypti mosquitoes. Routine shipments of eggs (American Biological Supply, Gainesville, Fla.) were used to maintain a continuous supply of adult 5-10 day old mosquitoes.
# Assays for Attraction of Mosquitoes to Human Subjects: A group of 30 volunteers, consisting of 14 females and 16 males and ranging in age from 24 to 68 years, was selected from the surrounding civilian population. Individuals were tested for their ability to attract Aedes aegypti mosquitoes contained in the olfactometer. Tests were conducted at a temperature of 27° C. and 50% relative humidity. For each trial 15 avid adult female Aedes aegypti mosquitoes (5-10 days post-emergence) were placed in the upper chamber. A small fan was placed on top of the upper chamber to cause an air flow from the lower chamber to the upper chamber. A trial began when the closure between the upper and lower chamber was opened in the absence of a human host. The number of mosquitoes entering the lower chamber within a 3 minute period was recorded. The volunteer then placed his or her arm beneath the lower chamber and the number of mosquitoes flying from the upper chamber to the lower chamber was recorded for the time intervals 0-1, 1-3, 3-5 and 5-7 minutes. This trial was repeated twice during a test session to obtain three replicates. Two additional test sessions, at time intervals of at least 1 week, were conducted to obtain at least 8-9 replicates for each of 24 subjects. Of the remaining 6 subjects, 3 were tested on two separate occasions for a total of 6 replicates per subject; 3 were tested on one occasion for a total of 3 replicates per subject. A total of 254 tests were conducted.
# Test compounds were dissolved in acetone or ethanol at a concentration of 300 mg/5 cc. Ethanol solutions of carboxylic acids were prepared just prior to use. Three hundred and fifty microliters of these solutions were applied to a 70 cm^2 rectangular area of the forearm. The resultant dose was 0.3 mg/cm^2. The repellent treated area was allowed to dry for 5 minutes prior to test. The treated skin area was placed under the olfactometer and tests were conducted as described in the preceding paragraph, “Assays for attraction of mosquitoes to human subjects”. Percent repellency was determined from the fraction of mosquitoes entering the lower chamber over a seven minute period.
# A commercial formulation of DEET (Skintastic, S. C. Johnson, Racine,) was applied to a 100 cm^2 area on the forearm of 1 volunteer (subject 02) to give a dose of 0.3 mg/cm^2 of DEET. A formulation of C8C9C10 (5% octanoic, 5% nonanoic, 5% decanoic in Dow Corning 345 volatile silicone fluid) was applied to a 100 cm^2 on the subject's other arm to give a dose of 0.3 mg/cm^2 total acids. Application sites were placed under the olfactometer at 1, 2 and 4 hours after treatment. Untreated areas on each arm were placed under the olfactometer at the completion of the treated area tests to check the avidity of the mosquitoes. Tests were done on four separate test days. […]
# [6] = Ionization at skin pH; type: physicochemical; settings: pH = pKa of the acids
# Description: Naturally occurring fatty acids contain both polar (carboxylic acid group) and non-polar (alkyl chain) regions in their structure and the lower molecular weight homologs are sufficiently volatile to evaporate from the skin surface. Individually, these compounds have repellent activity. A number of these compounds were applied to non-absorptive gauze mounted between the human forearm and the olfactometer containing mosquitoes. These tests were done immediately after application to minimize losses due to evaporation (described fully in “Example 2” below). Because skin absorption and evaporative loss is minimized, this test can be regarded as a measure of the potency of the compounds. Homologs containing 8 to 11 carbon atoms had similar potency (percent repellency), which was greater than that of DEET (FIG. 3). Six carbon homologs and twelve carbon homologs had potency equal to or less than DEET. […] Percent repellency dropped dramatically with increasing numbers of carbon atoms in the molecule (FIG. 4). […] The nonanoic acid was preferably saturated. 4MOCTAN had the best overall performance at the zero and two hour time points. It should be noted for FIGS. 4 and 5 that the carboxylic acids exist on the skin at a pH which ionizes 50% of the molecules (pH=pKa of the acids). Since the ionized species are not volatile, the actual available dose is approximately 50% of that for DEET.
# [7] = tested on: Aedes aegypti mosquitoes; experiment: Mosquito repellency on gauze or polyester film (olfactometer); type: in vivo; settings: cotton gauze or polyester film, 0.3 mg/cm^2, 3 minutes after application
# Description: Olfactometer: A Fiensod and […] olfactometer, as modified by Bowen and Davis, measured the host-oriented flight response of female mosquitoes to volatile host emanations (Feinsod, F. M., and […]; An olfactometer for measuring host-seeking behavior of female Aedes aegypti (Diptera: Culicidae); J. Med. Entomol., 15: 282-285, 1979). The olfactometer (approximately 38 cm high) consisted of an upper and lower screened chamber with a closure between the chambers (FIG. 8). A fan placed above the upper chamber drew air through the apparatus at approximately 0.2 m/s. A temperature and humidity controlled chamber (5' wide by 6' long by 8' high) was constructed to house the test subject and the olfactometer. Rearing of Mosquitoes: A second environmental chamber, maintained at 27° C. and 80% humidity, was dedicated to the rearing of Aedes aegypti mosquitoes. […] Assays for Attraction of Mosquitoes to Human Subjects: A group of 30 volunteers, consisting of 14 females and 16 males and ranging in age from 24 to 68 years, was selected from the surrounding civilian population. Individuals were tested for their ability to attract Aedes aegypti mosquitoes contained in the olfactometer. Tests were conducted at a temperature of 27° C. and 50% relative humidity. […] A small fan was placed on top of the upper chamber to cause an air flow from the lower chamber to the upper chamber. A trial began when the closure between the upper and lower chamber was opened in the absence of a human host. […] This trial was repeated twice during a test session to obtain three replicates. Two additional test sessions, at time intervals of at least 1 week, were conducted to obtain at least 8-9 replicates for each of 24 subjects. Of the remaining 6 subjects, 3 were tested on two separate occasions for a total of 6 replicates per subject; 3 were tested on one occasion for a total of 3 replicates per subject. A total of 254 tests were conducted. Test compounds were dissolved in acetone or ethanol at a concentration of 150 mg/5 cc. Ethanol solutions of carboxylic acids were prepared just prior to use. Five hundred microliters of these solutions were applied to a 50 cm^2 circular area of a single layer of cotton gauze (Curity Curad gauze, Futuro Inc., Milford, Ohio) or nonwoven polyester film ([…], Inc.). The resultant dose was 0.3 mg/cm^2. […] The cup was attached to the bottom of the olfactometer (FIG. 8) so that air flowed through the stainless steel screen of the cup, through the treated gauze or film, and through the olfactometer. A volunteer's forearm was placed under the cup, so that air drawn into the cup and olfactometer was laden with human skin emanations. Tests were conducted as described in the preceding paragraph, “Assays for attraction of mosquitoes to human subjects”. Percent repellency was determined from the fraction of mosquitoes entering the lower chamber over a seven minute period. This assay is an approximate measure of the intrinsic repellency of a compound. Good repellency in this test is a necessary, but not sufficient, condition for good repellency on skin. Mosquito repellents must produce a vapor over the skin surface to confuse the host seeking behavior of the insect. However, volatilization must not be so great that the repellent action rapidly dissipates. Since volatilization from the skin will be different from an inanimate surface, skin tests are necessary to confirm that a compound will be a practical repellent.
# [8] = Thermal stability; type: physicochemical
# [9] = tested on: Aedes aegypti mosquitoes; experiment: Mosquito repellency on skin (olfactometer, human forearm); type: in vivo
# [10] = tested on: yellow fever mosquito (Aedes aegypti (L.)); settings: human skin, approximately 2 mg/cm^2, time until two bites; DEET from Gilbert 1957; cited from earlier work
# [11] = tested on: mosquitoes; settings: under laboratory conditions; cited from earlier work
# [12] = at 125° C., literature values; cited from earlier work
# [13] = on skin, listed as N,N-Diethyl-m-toluamide
smiles,measurement,setting,value
CCCCCCCC=CC(=O)O [2-Decenoic acid],Protection time against Aedes aegypti mosquitoes,[1],<15 min
same,Protection Time,[2],6 ± 4 h
same,"Vol. (vapor pressure), (est)",[3],2.4 (est) mm Hg
"CCCC(O)C(CC)CO (stereo not shown) [2-Ethyl-1,3-hexanediol, reference compound]",volatility relative to DEET,[3]; from vapor pressures of Table 7,twice as volatile as DEET
same,protects against mosquitoes for,[4],3 to 4 h
CCCCC(C)CCC(=O)O (stereo not shown) [4-Methyloctanoic acid],"repellency immediately after application to skin, compared to DEET",[5]; FIG. 4,comparable to DEET
same,"repellency two hours after skin application, ranking",[5]; FIG. 5,highest repellency
same,Percent Repellency 2 h,[5]; on skin,66 (1) %
same,fraction ionized at skin pH,[6],about 50%
same,pest or weed control at 0.3 mg/cm2,"[7]; Aedes aegypti, 0.05 h, read-out: Percent Repellency",88 ± 18%
same,"Vol. (vapor pressure), (est)",[3],6 (est) mm Hg
same,Thermal stability,[8],thermally unstable
same,repellency over a 4 hour period compared to DEET,"[9]; 0.6 mg/cm^2 versus 0.3 mg/cm^2 DEET, FIG. 6",nearly equal to that of DEET
same,Percent Repellency 2 h,"[9]; on skin, 0.6 mg/cm^2, 2 h after application",79 ± 21 (2) %
same,Percent Repellency 4 h,"[9]; on skin, 0.6 mg/cm^2, 4 h after application",67 ± 9%
"CCN(CC)C(=O)c1cccc(C)c1 [DEET, N,N,-diethyl-m-toluamide, reference compound]",Protection time against Aedes aegypti mosquitoes,[1],330 min
same,Percent Repellency 0 h,[5]; on skin,95% and 95 ± 6%
same,Percent Repellency 0 h,[5]; [13],95 ± 6 (3) %
same,Percent Repellency 2 h,[5]; on skin,89% and 89 ± 10%
same,Percent Repellency 2 h,[5]; [13],89 ± 10 (3) %
same,Percent Repellency 4 h,"[5]; on skin, 0.3 mg/cm^2, 4 h after application",83 ± 9%
same,Protection Time,[2],8 ± 2 h
same,Percent Repellency,[7],74%
same,Percent Repellency,"[7]; listed as N,N-Diethyl-m-toluamide",74 ± 12%
same,Protection time against yellow fever mosquitoes,[10],363 min^b
same,hours of protection,[11],5 to 7 h
same,protects against mosquitoes for,[4],5 to 6 h
CCCCCC(=O)O [Hexanoic acid],Vol. (vapor pressure),[12],39.6 mm Hg
